The subject of series [1] is craNCSC clone D7-1. The series is described as follows: AG490 (Jak inhibitor) treatment of long-term cultured craNCSC clone D7-1, alive cell count. To be noted: counted daily, vs 0.4% DMSO vehicle. Format: cell-based, mouse. As to the method:
(§1) AG490 (Sigma Chemical Co., St Louis, Mo., USA) was reconstituted in dimethyl sulfoxide (DMSO) and stored at −20° C. A stock concentration was 10 mM. Cranial tissues of Wnt1-Cre;R26R;EGFP mouse at E8.5 were dissociated by 0.025% trypsin and 1 mg/ml collagenase in DPBS. Then, neural crest cells labeled with Wnt1-Cre;R26R;EGFP were sorted by means of FACS and used for Jak inhibitor treatment. D7-1 or primary cultured cranial neural crest cells were seeded to fibronectin coated plate at a density of 20000 or 12700 cell/cm^2 respectively, and incubated for three days in basal medium as described above, added with either control DMSO, 10 μM AG490, or 20 μM AG490. Culture medium was changed daily. Alive cell number was counted on each day for D7-1 and third day for primary cultured cells.
The hypothesis that phosphorylation of STAT3 by JAK kinase is essential for the maintenance of craNCSC was also investigated. JAK inhibitor AG490 was used for this study. AG490 is synthetic PTK inhibitor with anti-JAK2 activity. […] If craNCSC require the JAK-STAT signal for its maintenance, treatment of AG490 will cause overt effects. 10 μM and 20 μM AG490 treatment against D7-1 was performed for three days and alive cell number was counted on each day. […] Dose dependent susceptibility of D7-1 against AG490 was also evident.

Series [2] relates to primary cultured cranial neural crest cells. The series is described as follows: AG490 (Jak inhibitor) treatment of primary cultured cranial neural crest cells, alive cell count. Format: cell-based, mouse. To be noted: E8.5 FACS sorted cells. The method, then: as §1
These experiments were done with a long-term cultured craNCSC clone, D7-1, which has been treated with LIF during entire culture process. Therefore, it is possible that D7-1 cells has been poised to LIF and adopted to the JAK-STAT dependent culture condition. To evaluate this, Applicants freshly isolated Wnt1-Cre;R26R;EGFP positive cranial neural crest cells from E8.5 mouse embryos by FACS sorting and treated them with AG490 for three days. If JAK2 activity is dispensable to these primary neural crest, chemical treatment would not cause any apparent effects. […]

Series [3] concerns STAT3 negative cells. To be noted: 80 μM AG490; cited from earlier work.
Series [4] concerns human B-precursor leukemic cell line. To be noted: by inducing apoptosis; cited from earlier work.
The test system of series [5] is cells which are independent from the JAK-STAT signal. To be noted: cited from earlier work.

“Also recorded” adds a separate entry of the source.

`N#C/C(=C/c1ccc(O)c(O)c1)C(=O)NCc1ccccc1` [AG490]: the “alive (viable) cell number” value in series [1] (10 μM AG490, three days) is “smaller effect; also recorded: more modest effect”; in series [1] (20 μM AG490, three days), “significant reduction of the viable cells; also recorded: significant depletion of cell survival”. Further, the “cell mortality (alive cell number)” value was “High cell mortality” in series [2] (10 μM AG490, three days) and “High cell mortality” in series [2] (20 μM AG490, three days). The general toxicity result in series [3] was “does not cause general toxicity”. Further, the cell growth entry in series [4] is on record as “prevents the growth”. The effect on cells entry in series [5] was “no obvious effect”.

Source of the values: US20120219535A1, “CRANIAL NEURAL CREST STEM CELLS AND CULTURE CONDITION THAT SUPPORTS THEIR GROWTH” (University of Southern California, priority 2009, published 2012).
